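Five concentrations, 48 hours, 96-well plates. GI50 = concentration required for 50% inhibition of growth.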 Active and inactive are the calls of the source. Cut-off read from the data, not from the text of the source: active = GI50 up to about 1.1 µM and inactive = higher.
How the values were obtained:
Assay in all cases: NCI anticancer screen, dose series, 48 h
SN12C = system: SN12C
A498 = system: A498
NCI-H460 = system: NCI-H460
KM-20L2 = system: KM-20L2
IGROV-1 = system: IGROV-1
TK-10 = system: TK-10
SNB-75 = system: SNB-75
HOP-62 = system: HOP-62
NCI-H226 = system: NCI-H226
786-0 = system: 786-0
SK-MEL-28 = system: SK-MEL-28
M14 = system: M14
MOLT-4 = system: MOLT-4
OVCAR-4 = system: OVCAR-4
UACC-62 = system: UACC-62
NCI-H23 = system: NCI-H23
CAKI-1 = system: CAKI-1
Malme-3M = system: Malme-3M
SF-268 = system: SF-268
EKVX = system: EKVX
M19-MEL = system: M19-MEL
RXF 393 = system: RXF 393
DMS-114 = system: DMS-114
SK-MEL-2 = system: SK-MEL-2
COLO 205 = system: COLO 205
SF-295 = system: SF-295
SNB-78 = system: SNB-78
HL-60 = system: HL-60
RPMI-8226 = system: RPMI-8226
SNB-19 = system: SNB-19
UACC-257 = system: UACC-257
OVCAR-5 = system: OVCAR-5
K562 = system: K562
SK-MEL-5 = system: SK-MEL-5
LXFL 529 = system: LXFL 529
NCI-H522 = system: NCI-H522
A549 = system: A549
CCRF-CEM = system: CCRF-CEM
SK-OV-3 = system: SK-OV-3
ACHN = system: ACHN
UO-31 = system: UO-31
OVCAR-3 = system: OVCAR-3
SF-539 = system: SF-539
HCC 2998 = system: HCC 2998
LOX IMVI = system: LOX IMVI
KM12 = system: KM12
SW-620 = system: SW-620
DLD-1 = system: DLD-1
HT-29 = system: HT-29
DMS-273 = system: DMS-273
XF498 = system: XF498
HCT-15 = system: HCT-15
OVCAR-8 = system: OVCAR-8
SR = system: SR
HOP-92 = system: HOP-92
HCT-116 = system: HCT-116

Measured: GI50

COc1cccc(C2=NC(C(C)C)CO2)c1 (stereo unspecified)
> 100 µM: HCT-15
inactive: SN12C > 100 µM | A498 > 100 µM | NCI-H460 > 100 µM | KM-20L2 > 100 µM | IGROV-1 > 100 µM | TK-10 > 100 µM | SNB-75 > 100 µM | HOP-62 > 100 µM | NCI-H226 > 100 µM | 786-0 > 100 µM | SK-MEL-28 > 100 µM | M14 > 100 µM | MOLT-4 > 100 µM | OVCAR-4 > 100 µM | UACC-62 > 100 µM | NCI-H23 > 100 µM | CAKI-1 > 100 µM | Malme-3M > 100 µM | SF-268 > 100 µM | EKVX > 100 µM | M19-MEL > 100 µM | RXF 393 > 100 µM | DMS-114 > 100 µM | SK-MEL-2 > 100 µM | COLO 205 > 100 µM | SF-295 > 100 µM | SNB-78 > 100 µM | HL-60 > 100 µM | RPMI-8226 > 100 µM | SNB-19 > 100 µM | UACC-257 > 100 µM | OVCAR-5 > 100 µM | K562 > 100 µM | SK-MEL-5 > 100 µM | LXFL 529 > 100 µM | NCI-H522 > 100 µM | A549 > 100 µM | CCRF-CEM > 100 µM | SK-OV-3 > 100 µM | ACHN > 100 µM | UO-31 85.7 µM | OVCAR-3 > 100 µM | SF-539 > 100 µM | HCC 2998 > 100 µM | LOX IMVI > 100 µM | KM12 > 100 µM | SW-620 > 100 µM | DLD-1 > 100 µM | HT-29 > 100 µM | DMS-273 > 100 µM | XF498 > 100 µM | OVCAR-8 > 100 µM

Cc1ncc(CBr)c(CBr)c1O
inactive: SN12C > 100 µM | A498 > 100 µM | SR > 100 µM | IGROV-1 > 100 µM | SNB-75 > 100 µM | HOP-62 > 100 µM | NCI-H226 > 100 µM | 786-0 > 100 µM | SK-MEL-28 > 100 µM | M14 > 100 µM | MOLT-4 > 100 µM | HOP-92 > 100 µM | OVCAR-4 > 100 µM | UACC-62 > 100 µM | NCI-H23 > 100 µM | CAKI-1 > 100 µM | Malme-3M > 100 µM | SF-268 > 100 µM | M19-MEL > 100 µM | DMS-114 > 100 µM | HCT-116 > 100 µM | SK-MEL-2 > 100 µM | COLO 205 > 100 µM | SNB-78 > 100 µM | HL-60 60.8 µM | RPMI-8226 > 100 µM | K562 > 100 µM | LXFL 529 > 100 µM | NCI-H522 55.3 µM | CCRF-CEM 44.7 µM | SK-OV-3 > 100 µM | ACHN > 100 µM | UO-31 89.1 µM | SF-539 > 100 µM | HCC 2998 > 100 µM | DLD-1 > 100 µM | DMS-273 > 100 µM | XF498 > 100 µM

From ChEMBL document CHEMBL1201862, “PubChem BioAssay data set” (2004)
